One may read the IC50 as the midpoint of a concentration-inhibition curve. Higher therefore signals a need for much substance. In general, CC50 refers to the concentration that lowers cell viability or growth by half.

The test system of data set [1] is L. infantum promastigotes. Put plainly: Anti-Leishmania activity assay on promastigotes (MTT viability). It is filed as cell-based. The note with it: pure compounds. As for the experimental part: Anti-Leishmania (AL) activity was assessed on L. infantum promastigotes (MCAN/ES/98/LLM-722), kindly provided by Dr. J.M. Requena from CBM-CSIC, as well as on L. infantum (M/CAN/ES/96/BCN150 zymodeme MON-1), strain isolated from a dog with active visceral leishmaniasis. L. infantum promastigotes (MCAN/ES/98/LLM-722) were cultured in RPMI medium supplemented with 15% FBS and 10 μg/mL of hemin (Acros Organics, Madrid, Spain), grown at 26 °C. Promastigotes in logarithmic growth were seeded in 96-well flat-bottom plates at a volume of 100 μL of culture per well and incubated for 48 h. Promastigotes for macrophage infection (M/CAN/ES/96/BCN150 zymodeme MON-1) were maintained at 26 °C in Schneider’s insect medium (Lonza, Basel, Switzerland) supplemented with 10% FBS and 100 U/mL penicillin and 100 μg/mL streptomycin (Lonza, Basel, Switzerland) (Pen-Strep). Promastigotes in the stationary phase of growth (5–6 days) were washed twice in phosphate-buffered saline at 2700× g for 10 min at 22 °C and employed for macrophage infection.
EOs and pure compounds were solved in DMSO (Sigma, Madrid, Spain) (<1% final concentration). […] Trophozoites/promastigotes viability was assessed using the modified MTT colorimetric assay, as described previously in the literature, with results further validated by microscopic examination. The plate was analyzed in a spectrophotometer at a wavelength of 570 nm. The percentage of antiparasitic activity was calculated as growth inhibition, using the following formula: % AT = 100 − [(Ap − Ab) ÷ (Ac − Ab)] × 100, where Ap is the absorbance of the tested product, Ab the absorbance of the blank and Ac the absorbance of the control wells (culture without treatment).
Pure compounds were tested using the same method, although at concentrations of 100, 75, 50, 25, 10, and 1 μg/mL. Metronidazole (Acros Organics, Madrid, Spain) served as a reference compound for anti-Giardia activity and Anti-Trichomonas activity and amphotericin B for anti-Leishmania activity.
(§1) Data was analyzed using STATGRAPHICS Centurion XIX (https://www.statgraphics.com) (Statgraphics Technologies, Inc., The Plains, VA, USA). The mammalian cells and trophozoites viability were tested with each compound in a dose–response experiment to calculate their relative potency (CC50 or IC50 value, respectively). IC50 (μg/mL) expresses the dose of EOs, extracts or pure compounds needed to produce 50% mortality of trophozoites, while CC50 (μg/mL) expresses the dose of compounds necessary to produce 50% mortality of Vero cells.

The subject of data set [2] is G. duodenalis trophozoites. Put plainly: Anti-Giardia activity assay (MTT viability). It is filed as cell-based. As to conditions: pure compounds. As for the experimental part:
Anti-Giardia (AG) activity assays were conducted on G. duodenalis trophozoites from the ATCC® 30957 strain (assemblage A), using flat-bottom microwell plates in quadruplicate. […] Incubation was carried out for 24 h at 37 °C. EOs and pure compounds were solved in DMSO (Sigma, Madrid, Spain) (<1% final concentration). […] Trophozoites/promastigotes viability was assessed using the modified MTT colorimetric assay, as described previously in the literature, with results further validated by microscopic examination. The plate was analyzed in a spectrophotometer at a wavelength of 570 nm. The percentage of antiparasitic activity was calculated as growth inhibition, using the following formula: % AT = 100 - [(Ap - Ab) ÷ (Ac - Ab)] × 100, where Ap is the absorbance of the tested product, Ab the absorbance of the blank and Ac the absorbance of the control wells (culture without treatment). […] Metronidazole (Acros Organics, Madrid, Spain) served as a reference compound for anti-Giardia activity and Anti-Trichomonas activity and amphotericin B for anti-Leishmania activity. Data was analyzed using STATGRAPHICS Centurion XIX ([…].com) (Statgraphics Technologies, Inc., The Plains, VA, USA). The mammalian cells and trophozoites viability were tested with each compound in a dose-response experiment to calculate their relative potency (CC50 or IC50 value, respectively).

Another data set relates to T. gallinae trophozoites. Put plainly: Anti-Trichomonas activity assay (MTT viability). It is filed as cell-based. The note with it: pure compounds. As for the experimental part:
The anti-Trichomonas (AT) activity assay utilized T. gallinae trophozoites from an isolate obtained from a wood pigeon by Dr. […] EOs and pure compounds were solved in DMSO (Sigma, Madrid, Spain) (<1% final concentration). […] Trophozoites/promastigotes viability was assessed using the modified MTT colorimetric assay, as described previously in the literature, with results further validated by microscopic examination. The plate was analyzed in a spectrophotometer at a wavelength of 570 nm. The percentage of antiparasitic activity was calculated as growth inhibition, using the following formula: % AT = 100 - [(Ap - Ab) ÷ (Ac - Ab)] × 100, where Ap is the absorbance of the tested product, Ab the absorbance of the blank and Ac the absorbance of the control wells (culture without treatment). […] Metronidazole (Acros Organics, Madrid, Spain) served as a reference compound for anti-Giardia activity and Anti-Trichomonas activity and amphotericin B for anti-Leishmania activity. Data was analyzed using STATGRAPHICS Centurion XIX ([…].com) (Statgraphics Technologies, Inc., The Plains, VA, USA). The mammalian cells and trophozoites viability were tested with each compound in a dose-response experiment to calculate their relative potency (CC50 or IC50 value, respectively).

Data set [3] can be described thus: Cytotoxicity of pure compounds on Vero cells (MTT). In kind it is cell-based. The note with it: African green monkey, Vero cells (kidney cells); 48 h exposure; 50% Vero cell mortality; MTT; read-out: Vero Cells CC50. As for the experimental part: African green monkey kidney cells (Vero cells) were maintained in Dulbecco’s modified Eagle’s minimal essential medium (DMEM) (Thermo Fisher Scientific, Waltham, MA, USA) supplemented with 10% FBS and 1% Pen-Strep at 37 °C under a humidified atmosphere of 5% CO2/95% air.
Cells seeded in 96-well flat-bottom microplates with 100 μL medium per well (initial densities 10^4 cells per well) were exposed for 48 h to serial dilutions (100, 75, 50, 25, 10 and 1 µg/mL) of the tested compounds in DMSO (<1% final concentration). Cell viability was analyzed by the MTT colorimetric assay method, and the purple-colored formazan precipitate was dissolved with 100 μL of DMSO [23].
as §1

The test system of data set [4] is L. infantum promastigotes. Put plainly: Morphological evaluation by light microscopy (Diff-Quik), L. infantum. It is filed as cell-based, Leishmania infantum. As to conditions: amphotericin B at 1 µg/mL. The procedure:
L. infantum, T. gallinae and G. duodenalis were studied at 0, and 48 h after treatment with germacrone (100 µg/mL), and controls (DMSO 1%, metronidazole at 10 µg/mL for T. gallinae and G. duodenalis and amphotericin B at 1 µg/mL for L. infantum).
For L. infantum and T. gallinae, cultures in the exponential growth phase (10^7 promastigotes/mL and 5 × 10^5 trophozoites/mL, respectively) were treated in 96-well microplates. At each time point, quadruplicates were assigned per condition: growth control, germacrone, and the corresponding positive control (metronidazole or amphotericin B). For microscopy, quadruplicate wells corresponding to the same condition/time point were pooled prior to centrifugation to obtain sufficient biomass and a representative pellet for smear preparation. Pooled samples per condition/time point were centrifuged, resuspended in FBS and spread onto microscope slides. Once dried, samples were fixed and stained with Diff-Quik (Medion Diagnostic AG, Düdingen, Switzerland) following the manufacturer’s instructions. Additionally, three wells per condition (triplicates) were used for the MTT assay, with absorbance measured by spectrophotometry after 48 h.
Morphological changes were analyzed using light microscopy. Experiments were performed as independent biological replicates on different plates, and one Diff-Quik stained smear was obtained per condition and time point per biological replicate. For morphometric analysis, a total of 30 trophozoites per condition and time point were measured across the independent biological replicates and were selected by consecutive sampling during a predefined serpentine (zig-zag) scan across the preparation. Up to two eligible trophozoites per field (intact, well-focused and non-overlapping) were measured in sequential fields until n = 30 was reached, avoiding subjective selection of “representative” cells. Overlapping, partially visible, out-of-focus, edge-of-field, or debris-obscured trophozoites were excluded a priori. Trophozoites were photographed using a researcher’s mobile phone mounted to the microscope ocular. Calibration was performed at the same magnification using a stage micrometre and applied in ImageJ v. 1.54d. One Diff-Quik stained smear was obtained per condition/time point per biological replicate Cell length, cell width, cell surface, nuclear length, nuclear width, axoneme (only Giardia), and length of axostyle (only T. gallinae) were measured with ImageJ software, and the data were recorded in an Excel database for statistical analysis.
The Shapiro–Wilk test was used to assess the normality of the morphological variables. When data followed a normal distribution, Student’s t-test was applied; otherwise, non-parametric tests, such as the Mann–Whitney U test, was used. Values of p < 0.05 were considered significant. For the morphological analysis, the mean, standard deviation, median, and interquartile range were calculated using SPSS version 20 (IBM Corp., Armonk, NY, USA).

The test system of data set [5] is L. infantum promastigotes. Further details: method as in doi:10.1080/10412905.2013.820669. As to conditions: cited from earlier work.
Data set [6] deals with intracellular amastigotes of L. infantum. Put plainly: Infection index of DH82 macrophages infected with L. infantum (intracellular amastigotes). In kind it is cell-based, Leishmania infantum. The note with it: 1 µg/mL, 48 h.
A further data set deals with Vero cells. Further details: method as in PMID 36672727. The note with it: cited from earlier work.

Converted amounts (≈) assume the structure as drawn. Some results are limits rather than exact numbers.

Turning to `C/C1=C\CC2(OC2(C)C)C(=O)C/C(C)=C/CC1` (stereo not drawn) [Compound 4], the IC50 in data set [1] is 88.8 µg/mL (≈ 379 µM); in data set [2] it was > 100 µg/mL; in the data set on T. gallinae trophozoites, 51.6 µg/mL (≈ 220 µM). Moreover, in data set [3], the cytotoxic concentration (CC50) at 48 h is > 100 µg/mL.
In the case of `CC(C)=C1CC(=O)[C@]2(C)CC[C@H]2[C@@H](C)CC1=O` [Compound 3], the IC50 is 35.5 µg/mL (≈ 151 µM) in data set [1], > 100 µg/mL in data set [2] and > 100 µg/mL in the data set with T. gallinae trophozoites. In addition, the CC50 at 48 h in data set [3] was > 100 µg/mL.
In the case of `C=C[C@]1(C)CC(=O)C(=C(C)C)C[C@H]1C(=C)C` [Compound 1, β-elemenone], the IC50 (in data set [1]; in data set [2]; in the data set on T. gallinae trophozoites) was > 100 µg/mL each time. In addition, the CC50 at 48 h in data set [3] is > 100 µg/mL.
Consider `C[C@@H]1[C@H](O)[C@@H](C)/C=C/C=C/C=C/C=C/C=C/C=C/C=C/[C@H](O[C@@H]2O[C@H](C)[C@@H](O)[C@H](N)[C@@H]2O)C[C@@H]2O[C@](O)(C[C@@H](O)C[C@@H](O)[C@H](O)CC[C@@H](O)C[C@@H](O)CC(=O)O[C@H]1C)C[C@H](O)[C@H]2C(=O)O` [AmB, amphotericin B], for which the “morphological alterations of promastigotes” value in data set [4] was “strong morphological alterations”. For the same compound, the “L. infantum (pm) IC50” value in data set [5] was 0.01 [22] µg/mL. For the same compound, the “Infection Index” value in data set [6] (% infected x amastigotes per infected cell) is 8.9 ± 0.0. For the same compound, in data set [6] (mean ± SD), the “% Infected Cells” value is 6.4 ± 3.7 % and the “nº Amastigotes/Infected Cell” value is on record as 1.4 ± 0.7. In the data set with Vero cells, the “Vero Cells CC50” value is 7.11 [21] µg/mL.

The record behind these values is article PMC12841663, “Antiprotozoal Potential of Cultivated Geranium macrorrhizum Against Giardia duodenalis, Trichomonas gallinae and Leishmania infantum” (International Journal of Molecular Sciences, 2026).
